The structures appear in SMILES notation.

In series [1] the test system is MCF7 cells. In words: Spheroid formation, hanging drop method. Type of series: cell-based. The following applies: 1 μM. As to the method: (§1) FIG. 6: IODVA1 inhibits cell-substratum and cell-cell interactions. (A) IODVA1 impedes spreading of MCF7 and MDA-MB-231 cells on fibronectin. MCF7, T47D, and MDA-MB-231 cells were incubated on fibronectin coated coverslips for 10 min, then further incubated with the indicated concentrations of IODVA1 for 30 min in serum-free media, fixed and observed by bright field microscopy. Areas of single cells were calculated from 6 random fields (no less than 300 cells total per treatment group). Results shown are mean±s.e.m. of a single experiment and are representative of three independent experiments. (B) Effects of IODVA1 treatment on spheroid formation in MCF10A, MCF7, T47D, and MDA-MB-231 cells. Left panel—representative bright field images of hanging drop cultures of MCF10A, MCF7, T47D, and MDA-MB-231 cells grown in the absence (0 μM) and presence of IODVA1 (1 μM) prior to and post mechanical pipetting (trituration). Scale bar=200 μm. Right panel, changes in spheroid/aggregate size due to IODVA1 treatment indicated by the diameter of the spheroids. Results shown are mean±stdev, N=15. (C) IODVA1 treatment reduces proliferation capacity in adhesion-free environment. MCF7, T47D, and MDA-MB-231 cells were grown in complete media in the presence of IODVA1 or vehicle control in ultra-low attachment plates for 5 days. Aggregates and spheroids were dissociated with accutase and trituration, and the number of live cells was determined by trypan blue exclusion. Results shown are combined mean±stdev of two independent experiments. n.s.—not significant, *-p<0.05, **-p<0.01, ***-p<0.001, ****-p<0.0001.
(§2) In vitro 3D assays, such as spheroid formation, serve as an intermediate between 2D (monolayer) cellular assays and in vivo animal models. Spheroid formation is mediated by matrix development and remodeling and changes in the cytoskeleton and cell-cell contacts and adhesion. To evaluate the effect of IODVA1 on spheroid formation, single cell suspension were plated in complete media containing vehicle control or IODVA1 at 0.1-3 μM range using the hanging drop and ultra-low attachment (ULA) methods (Foty R. 2011). […]
(§3) Spheroids were formed by the hanging drop method or using ultra-low attachment (ULA) plates (Corning). […] Spheroid formation was monitored daily and imaged using EVOS microscope (Life Technologies). For assessment of attachment-free proliferation, the contents of the well were transferred into an Eppendorf tube, centrifuged at 100×g for 5 min, dissociated into a single cell suspension using trituration and Accutase (Invitrogen) treatment at room temperature and counted using trypan blue exclusion.

Series [2] deals with MCF10A cells. In words: Spheroid formation, hanging drop method. Type of series: cell-based. Here is the method: as §1, §2, §3
Series [3] concerns T47D cells. The series is described as follows: Spheroid formation, hanging drop method. Type of series: cell-based. The following applies: 1 μM. As to the method:
as §1, §2, §3

Series [4] deals with murine colon adenocarcinoma MC38 tumors. The series is described as follows: MC38 colon adenocarcinoma mouse model. Format: in vivo, mice. Here is the method: FIG. 21: NIRA2 inhibits tumor growth of murine colon adenocarcinoma xenografts. […] Animals began treatment with vehicle, IODVA1, or NIRA2 (N=10 per group) when tumors reached 100-200 mm^3 in volume (day 12 post-injection) and received treatment 5 times per week for two weeks. Representative pictures of the spleens and extracted tumors are shown.
The in vivo efficacy of NIRA2 was tested against a xenograft mouse model generated with the murine colon adenocarcinoma MC38 cells. Cells were injected subcutaneously in the flank of a hind leg. Each injection contained one million cells of Matrigel+MC38 in a volume of […]. Tumors were calipered until an average size of 100-200 mm^3 is reached. Animals were sorted in into treatment groups (N=10) and administered (5× a week) by IP 250 μL of a PBS solution containing vehicle control, IODVA1 (1 mM), or NIRA2 (0.5 mM). Treatments lasted 2 weeks Animals were euthanized as tumor size reached 2 cm^3 or at the end of the study. Tumors were measured daily and mice weighed 3 times a week.

Series [5] deals with NIH-3T3 cells. In words: PDGF-induced circular dorsal ruffle (CDR) formation. Format: cell-based. Particulars: 0-3 μM for 1 h, PDGF for 10 min.

`OC1(c2ccccn2)N=C(Nc2nc3ccccc3[nH]2)N=C1c1ccccn1` (stereo not shown) [IODVA1, (Z)-2-((1H-benzo[d]imidazol-2-yl)imino)-4,5-di(pyridin-2-yl)-2,5-dihydro-1H-imidazol-5-ol]: the “spheroids after mechanical disruption by pipetting” value in series [1] is recorded as “complete dissociation”. Further, in series [1] (96 h), the spheroid size result is “formed smaller spheroids”. Further, the effect on spheroids entry in series [2] is listed as “No effect”. Also, the spheroid formation entry in series [3] was “failed to form packed spheroids”. The “tumor growth and tumor volumes” value in series [4] (IP 250 μL of 1 mM, 5× a week, 2 weeks) is recorded as “significantly reduced”. Also, the effect on spleen result in series [4] (end of the study) is given as “did not notice any effect”. For the same molecule, the CDR formation entry in series [5] is listed as “inhibited”.

For the origin of these results see patent publication US11564913B2, “Compositions and methods for treating cancer” (Children's Hospital Medical Center, priority 2019, dated 2023).
